# From ChEMBL document CHEMBL5550169, “A consensus reverse docking approach for identification of a competitive inhibitor of acetyltransferase enhanced intracellular survival protein from Mycobacterium tuberculosis” (Bioorg Med Chem, 2024)
# T1: N-acetyltransferase Eis (Mycobacterium tuberculosis (strain ATCC 25618 / H37Rv), UniProt P9WFK7)
# T1 sequence (P9WFK7 whole entry): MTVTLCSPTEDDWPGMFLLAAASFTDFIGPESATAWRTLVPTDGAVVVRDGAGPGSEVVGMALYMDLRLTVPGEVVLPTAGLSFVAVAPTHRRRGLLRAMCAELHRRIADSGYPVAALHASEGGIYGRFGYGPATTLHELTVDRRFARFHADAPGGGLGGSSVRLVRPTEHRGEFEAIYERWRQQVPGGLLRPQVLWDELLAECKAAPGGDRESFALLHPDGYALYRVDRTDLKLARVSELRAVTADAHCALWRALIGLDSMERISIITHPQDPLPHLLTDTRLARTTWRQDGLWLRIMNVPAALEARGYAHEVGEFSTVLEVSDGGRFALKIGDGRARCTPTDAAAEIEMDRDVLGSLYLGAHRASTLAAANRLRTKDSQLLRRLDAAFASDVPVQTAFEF
# T2: N-acetyltransferase Eis (Mycobacterium tuberculosis (strain ATCC 25618 / H37Rv)) (UniProt P9WFK7)
# T2 sequence (whole entry): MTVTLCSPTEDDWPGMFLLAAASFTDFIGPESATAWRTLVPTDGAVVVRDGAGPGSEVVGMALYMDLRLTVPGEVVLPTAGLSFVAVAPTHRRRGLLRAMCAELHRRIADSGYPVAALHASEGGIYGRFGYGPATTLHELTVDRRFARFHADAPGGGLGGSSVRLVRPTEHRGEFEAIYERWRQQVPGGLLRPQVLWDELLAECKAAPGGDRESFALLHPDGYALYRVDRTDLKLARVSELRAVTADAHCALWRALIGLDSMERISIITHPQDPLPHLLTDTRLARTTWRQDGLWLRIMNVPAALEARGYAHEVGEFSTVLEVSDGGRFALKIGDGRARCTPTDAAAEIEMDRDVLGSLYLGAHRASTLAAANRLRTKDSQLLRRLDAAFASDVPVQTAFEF
# How the values were obtained:
# [1] = tested on: Mycobacterium tuberculosis; assay: Antibacterial activity against Mycobacterium tuberculosis H37Ra measured after 7 days by resazurin reduction microplate assay; type: functional; details: 168 h, time 7 day
# [2] = tested on: Mycobacterium tuberculosis; assay: Antibacterial activity against Mycobacterium tuberculosis H37Ra measured after 7 days in presence of isoniazid by resazurin reduction microplate assay based checkerboard assay; type: functional; details: 168 h, time 7 day
# [3] = tested on: Mycobacterium tuberculosis; assay: Antibacterial activity against Mycobacterium tuberculosis H37Ra measured after 7 days in presence of rifampicin by resazurin reduction microplate assay based checkerboard assay; type: functional; details: 168 h, time 7 day
# [4] = tested on: Mycobacterium tuberculosis; assay: Antibacterial activity against Mycobacterium tuberculosis H37Ra measured after 7 days in presence of ethambutol by resazurin reduction microplate assay based checkerboard assay; type: functional; details: 168 h, time 7 day
# [5] = tested on: Mycobacterium tuberculosis; assay: Antibacterial activity against Mycobacterium tuberculosis H37Ra measured after 7 days in presence of moxifloxacin by resazurin reduction microplate assay based checkerboard assay; type: functional; details: 168 h, time 7 day
# [6] = tested on: Mycobacterium tuberculosis; assay: Additive antibacterial activity against Mycobacterium tuberculosis H37Ra assessed as isoniazid MIC at 3 to 50 uM measured after 7 days by resazurin reduction microplate assay based checkerboard assay; type: functional; details: 168 h, dose 3-50 µM, time 7 day
# [7] = tested on: Mycobacterium tuberculosis; assay: Additive antibacterial activity against Mycobacterium tuberculosis H37Ra assessed as rifampicin MIC at 3 to 50 uM measured after 7 days by resazurin reduction microplate assay based checkerboard assay; type: functional; details: 168 h, dose 3-50 µM, time 7 day
# [8] = tested on: Mycobacterium tuberculosis; assay: Additive antibacterial activity against Mycobacterium tuberculosis H37Ra assessed as ethambutol MIC at 3 to 50 uM measured after 7 days by resazurin reduction microplate assay based checkerboard assay; type: functional; details: 168 h, dose 3-50 µM, time 7 day
# [9] = tested on: Mycobacterium tuberculosis; assay: Additive antibacterial activity against Mycobacterium tuberculosis H37Ra assessed as moxifloxacin MIC at 3 to 50 uM measured after 7 days by resazurin reduction microplate assay based checkerboard assay; type: functional; details: 168 h, dose 3-50 µM, time 7 day
# [10] = tested on: Mycobacterium tuberculosis; assay: Additive antibacterial activity against Mycobacterium tuberculosis H37Ra assessed as fractional inhibitory concentration index at 3 to 50 uM measured after 7 days in presence of isoniazid by resazurin reduction microplate assay based checkerboard assay; type: functional; details: dose 3-50 µM; time 7 day
# [11] = tested on: Mycobacterium tuberculosis; assay: Additive antibacterial activity against Mycobacterium tuberculosis H37Ra assessed as fractional inhibitory concentration index at 3 to 50 uM measured after 7 days in presence of rifampicin by resazurin reduction microplate assay based checkerboard assay; type: functional; details: dose 3-50 µM; time 7 day
# [12] = tested on: Mycobacterium tuberculosis; assay: Additive antibacterial activity against Mycobacterium tuberculosis H37Ra assessed as fractional inhibitory concentration index at 3 to 50 uM measured after 7 days in presence of ethambutol by resazurin reduction microplate assay based checkerboard assay; type: functional; details: dose 3-50 µM; time 7 day
# [13] = tested on: Mycobacterium tuberculosis; assay: Additive antibacterial activity against Mycobacterium tuberculosis H37Ra assessed as fractional inhibitory concentration index at 3 to 50 uM measured after 7 days in presence of moxifloxacin by resazurin reduction microplate assay based checkerboard assay; type: functional; details: dose 3-50 µM; time 7 day
# N-acetyltransferase Eis [14] = target: T1, N-acetyltransferase Eis; assay: Inhibition of Mycobacterium tuberculosis H37Rv Eis protein using kanamycin as substrate preincubated for 10 mins followed by AcCoA addition and measured every 30 secs for 30 mins
# N-acetyltransferase Eis [15] = target: T1, N-acetyltransferase Eis; assay: Competitive inhibition of Mycobacterium tuberculosis H37Rv Eis protein using varying concentrations of kanamycin as substrate assessed as inhibition constant by Lineweaver-Burk plot analysis
# [16] = target: T2, N-acetyltransferase Eis (Mycobacterium tuberculosis (strain ATCC 25618 / H37Rv)); assay: Binding affinity to Mycobacterium tuberculosis H37Rv Eis protein assessed as gibbs free energy
# [17] = tested on: Mycobacterium tuberculosis; assay: Antibacterial activity against Mycobacterium tuberculosis H37Rv assessed as reduction in pellet formation measured after 7 to 14 days by alamar blue assay; type: functional; details: time 7-14 day
# [18] = tested on: Mycobacterium tuberculosis; assay: Antibacterial activity against Mycobacterium tuberculosis IAR2 assessed as reduction in pellet formation measured after 7 to 14 days by alamar blue assay; type: functional; details: time 7-14 day
# [19] = compound: COc1ccc(C(=O)CSc2nc3ccccc3c(=N)n2-c2ccccc2)cc1; assay: Competitive inhibition of Mycobacterium tuberculosis H37Rv Eis protein using varying concentrations of kanamycin as substrate assessed as Km at 6.25 uM by Lineweaver-Burk plot analysis (reference value: 448 +/- 99 microM)
# [20] = compound: COc1ccc(C(=O)CSc2nc3ccccc3c(=N)n2-c2ccccc2)cc1; assay: Competitive inhibition of Mycobacterium tuberculosis H37Rv Eis protein using varying concentrations of kanamycin as substrate assessed as Km at 11 uM by Lineweaver-Burk plot analysis (reference value: 448 +/- 99 microM)
# [21] = compound: COc1ccc(C(=O)CSc2nc3ccccc3c(=N)n2-c2ccccc2)cc1; assay: Competitive inhibition of Mycobacterium tuberculosis H37Rv Eis protein using varying concentrations of kanamycin as substrate assessed as Km at 15 uM by Lineweaver-Burk plot analysis (reference value: 448 +/- 99 microM)
# [22] = compound: COc1ccc(C(=O)CSc2nc3ccccc3c(=N)n2-c2ccccc2)cc1; assay: Competitive inhibition of Mycobacterium tuberculosis H37Rv Eis protein using varying concentrations of kanamycin as substrate assessed as Vmax at 6.25 uM by Lineweaver-Burk plot analysis (reference value: 119 +/- 11 microM)
# [23] = compound: COc1ccc(C(=O)CSc2nc3ccccc3c(=N)n2-c2ccccc2)cc1; assay: Competitive inhibition of Mycobacterium tuberculosis H37Rv Eis protein using varying concentrations of kanamycin as substrate assessed as Vmax at 11 uM by Lineweaver-Burk plot analysis (reference value: 119 +/- 11 microM)
# [24] = compound: COc1ccc(C(=O)CSc2nc3ccccc3c(=N)n2-c2ccccc2)cc1; assay: Competitive inhibition of Mycobacterium tuberculosis H37Rv Eis protein using varying concentrations of kanamycin as substrate assessed as Vmax at 15 uM by Lineweaver-Burk plot analysis (reference value: 119 +/- 11 microM)
molecule,measurement,setting,value
O=C(CSc1nc2sc3c(c2c(=O)n1Cc1ccccc1)CCCC3)c1ccc(Cl)c(Cl)c1,MIC,[1],> 200 µM
C=CCn1c(SCC(=O)c2ccc(OC)cc2)nc2ccccc2c1=N,MIC,[1],> 200 µM
N#C/C(=C\c1c[nH]c2ccccc12)C(=O)N1CCOCC1,MIC,[1],> 200 µM
O=C(CSc1nc2ccccc2c(=O)n1-c1ccccc1)c1ccccc1,MIC,[1],200 µM
CCOC(=O)/C(C#N)=C/c1c[nH]c2ccccc12,MIC,[1],> 200 µM
CC[C@@H](CO)NCCN[C@@H](CC)CO [ETHAMBUTOL],MIC,[1],8 µM
CCCCOC(=O)/C(C#N)=C/c1c[nH]c2ccccc12,MIC,[1],> 200 µM
COc1c(N2C[C@@H]3CCCN[C@@H]3C2)c(F)cc2c(=O)c(C(=O)O)cn(C3CC3)c12 [MOXIFLOXACIN],MIC,[1],0.2 µM
N#C/C(=C\c1c[nH]c2cccc([N+](=O)[O-])c12)C(=O)NCCCc1ccccc1,MIC,[1],> 200 µM
NNC(=O)c1ccncc1 [ISONIAZID],MIC,[1],0.23 µM
N#CCC(=O)NC(=O)/C(C#N)=C/c1c[nH]c2ccccc12,MIC,[1],> 200 µM
O=C(CSc1nc2ccccc2c(=O)n1-c1ccccc1)c1ccc(Cl)cc1,MIC,[1],200 µM
O=C(CSc1nc2sc3c(c2c(=O)n1-c1ccccc1)CCCC3)c1ccc(Cl)c(Cl)c1,MIC,[1],> 200 µM
N#C/C(=C\c1c[nH]c2ccccc12)C(=O)NCCCc1ccccc1,MIC,[1],> 200 µM
CO[C@H]1/C=C/O[C@@]2(C)Oc3c(C)c(O)c4c(O)c(c(/C=N/N5CCN(C)CC5)c(O)c4c3C2=O)NC(=O)/C(C)=C\C=C\[C@H](C)[C@H](O)[C@@H](C)[C@@H](O)[C@@H](C)[C@H](OC(C)=O)[C@@H]1C [RIFAMPIN],MIC,[1],0.01 µM
O=C(CSc1nc2sc3c(c2c(=O)n1Cc1ccccc1)CCCC3)c1cccc(O)c1,MIC,[1],200 µM
COc1ccc(C(=O)CSc2nc3ccccc3c(=N)n2-c2ccccc2)cc1,MIC,[1],50 µM
same,MIC,[2],50 µM
same,MIC,[3],50 µM
same,MIC,[4],50 µM
same,MIC,[5],50 µM
same,MIC,[6],0.23 µM
same,MIC,[7],0.01 µM
same,MIC,[8],8 µM
same,MIC,[9],0.4 µM
same,fractional inhibitory concentration index (FICI),[10],2
same,fractional inhibitory concentration index (FICI),[11],2
same,fractional inhibitory concentration index (FICI),[12],2
same,fractional inhibitory concentration index (FICI),[13],3
same,IC50,N-acetyltransferase Eis [14],11 µM
same,Ki,N-acetyltransferase Eis [15],14.4 µM
same,deltaG,[16],-7.04 kcal/mol
O=C(CSc1nc2sc3c(c2c(=O)n1Cc1ccccc1)CCCC3)c1ccccc1,MIC,[1],> 200 µM
O=C(CSc1nc2sc3c(c2c(=O)n1Cc1ccccc1)CCCC3)c1cccc(Cl)c1,MIC,[1],> 200 µM
N#C/C(=C\c1c[nH]c2ccccc12)C(=O)NCCN1CCCCC1,MIC,[1],200 µM
N#C/C(=C\c1c[nH]c2ccccc12)C(=O)Nc1ccccc1,MIC,[1],> 200 µM
Cc1cc(C)c2c(C(=O)NC3CCCCCC3)c[nH]c2c1,MIC,[17],4 ng/mL
same,MIC,[18],≥ 250 ng/mL
"N-acetyltransferase Eis (Mycobacterium tuberculosis (strain ATCC 25618 / H37Rv)), P9WFK7 (protein) MTVTLCSPTEDDWPGMFLLAAASFTDFIGPESATAWRTLVPTDGAVVVRDGAGPGSEVVGMALYMDLRLTVPGEVVLPTAGLSFVAVAPTHRRRGLLRAMCAELHRRIADSGYPVAALHASEGGIYGRFGYGPATTLHELTVDRRFARFHADAPGGGLGGSSVRLVRPTEHRGEFEAIYERWRQQVPGGLLRPQVLWDELLAECKAAPGGDRESFALLHPDGYALYRVDRTDLKLARVSELRAVTADAHCALWRALIGLDSMERISIITHPQDPLPHLLTDTRLARTTWRQDGLWLRIMNVPAALEARGYAHEVGEFSTVLEVSDGGRFALKIGDGRARCTPTDAAAEIEMDRDVLGSLYLGAHRASTLAAANRLRTKDSQLLRRLDAAFASDVPVQTAFEF",Km,[19],717 µM
same,Km,[20],721 µM
same,Km,[21],632 µM
same,Vmax,[22],112 µM/s
same,Vmax,[23],108 µM/s
same,Vmax,[24],94 µM/s
